Series [1] in a line: Cytotoxicity against human HuH7 cells by tetrazolium dye method. Format: cell-based, Huh-7.
Another series concerns Hepatitis C virus. Kind of series: Antiviral activity against HCV infected in HuH7 cells after 3 days by luciferase reporter gene assay. Format: functional, organism-based, Hepacivirus hominis. The settings on record: Huh-7, 72 h.

Structures are written as SMILES.

By CC50 is commonly meant the concentration at which the toxic effect on the cells reaches its halfway point. Low readings indicate harm at low concentration, high ones better tolerance by the cells. The term EC50 denotes the concentration that produces a half-maximal response. Higher therefore signals weaker potency. For the compound `CCCCn1c(=O)c2cc(OC)ccc2c2cc(C(O)(C(F)(F)F)C(F)(F)F)c(OC)cc21`, the CC50 in series [1] is more than 10 µM. Besides, in the series with Hepatitis C virus, a half-maximal response (EC50) required 0.17 µM.
Taken in the same sequence, the figures for `Cc1ncnc2c1ccn2[C@@H]1C=C(CO)[C@@H](O)[C@H]1O` were more than 100 µM and more than 100 µM.
Taken in the same sequence, the figures for `Cc1ncnc2c1c(F)cn2[C@@H]1C=C(CO)[C@@H](O)[C@H]1O` were more than 100 µM and more than 100 µM.
The corresponding values for `Cc1ncnc2c1c(Cl)cn2[C@@H]1C=C(CO)[C@@H](O)[C@H]1O` are more than 100 µM and 41.7 µM.
As to `Cc1ncnc2c1c(Br)cn2[C@@H]1C=C(CO)[C@@H](O)[C@H]1O`, the CC50 in series [1] was more than 100 µM. In the series on Hepatitis C virus, this compound had an EC50 of 37.3 µM.
Taken in the same sequence, the figures for `Cc1ncnc2c1c(I)cn2[C@@H]1C=C(CO)[C@@H](O)[C@H]1O` were more than 100 µM and 46.2 µM.
Taken in the same sequence, the figures for `C=Cc1cn([C@@H]2C=C(CO)[C@@H](O)[C@H]2O)c2ncnc(C)c12` were 52.8 µM and 28 µM.
The corresponding values for `C#Cc1cn([C@@H]2C=C(CO)[C@@H](O)[C@H]2O)c2ncnc(C)c12` are more than 100 µM and 67.7 µM.

The record behind these values is ChEMBL document CHEMBL2202987, “Structure based medicinal chemistry approach to develop 4-methyl-7-deazaadenine carbocyclic nucleosides as anti-HCV agent” (Bioorg Med Chem Lett, 2012).
